# Like-named read-outs stand apart in the source and are kept apart here. Starred links: 1 amine or outer side, 2 acyl side, 3 side chain; linkers in the order of their positions; H or OH if unused. Positions of bridges follow the written chain, without caps; N, C: chain ends. Non-standard residues stand in square brackets, D forms with d. Residues, ends and D or L forms follow the SMILES beside them. *: point of attachment. Bip(4'-NHCO-C6H4-3-CH2COOH) = N[C@@H](Cc1ccc(-c2ccc(NC(=O)c3cccc(CC(=O)O)c3)cc2)cc1)C(=O)O; Bip(4'-NHCO-C6H4-4-CH2COOH) = N[C@@H](Cc1ccc(-c2ccc(NC(=O)c3ccc(CC(=O)O)cc3)cc2)cc1)C(=O)O; X43 = O=C(O)[C@@H]1CCC[C@H](C(=O)Nc2ccc(-c3ccc(C[C@H](N[*:1])C(=O)[*:2])cc3)cc2)C1; X52 = Cc1c(C(=O)O)cccc1C(=O)Nc1ccc(-c2ccc(C[C@H](N[*:1])C(=O)[*:2])cc2)cc1; X77 = Cc1ccc(C(=O)O)cc1C(=O)Nc1ccc(-c2ccc(C[C@H](N[*:1])C(=O)[*:2])cc2)cc1; X5 = Cn1nc(C(=O)Nc2ccc(-c3ccc(C[C@H](N[*:1])C(=O)[*:2])cc3)cc2)c2ccccc21; Bip(4'-NH) = O=C([C@H](Cc1ccc(-c2ccc(N[*:3])cc2)cc1)N[*:1])[*:2]; dArg(ω-Bn(3-CH2OH)) = N=C(NCCC[C@@H](N)C(=O)O)NCc1cccc(CO)c1; Indazole3carbonyl(1-CH2COOH) = O=C(O)Cn1nc(C(=O)*)c2ccccc21; Bip(4'-NHAc) = CC(=O)Nc1ccc(-c2ccc(C[C@H](N)C(=O)O)cc2)cc1; X7 = N=C(NCCC[C@@H](N[*:1])C(=O)[*:2])NCc1ccc2occc2c1; Ala(imidazol-2-yl) = N[C@@H](Cc1ncc[nH]1)C(=O)O; Ala(morpholin-4-yl) = N[C@@H](CN1CCOCC1)C(=O)O; Bip = N[C@@H](Cc1ccc(-c2ccccc2)cc1)C(=O)O; Ala(2-furyl) = N[C@@H](Cc1ccco1)C(=O)O; Cha = N[C@@H](CC1CCCCC1)C(=O)O; Sar = CNCC(=O)O
# Molecular target: TNFα (Homo sapiens, UniProt P01375)
# Assay: TNF-Induced HEK-Blue Assay
# Format: cell-based
# [1] = HEK-Blue-CD40L cells, NF-kB-driven secreted alkaline phosphatase reporter, TNFα 0.5 ng/ml, 18 h, read-out: TNF induced HEK-Blue assay IC50 value
# Chain of TNFα (P01375 77-233 limits assumed): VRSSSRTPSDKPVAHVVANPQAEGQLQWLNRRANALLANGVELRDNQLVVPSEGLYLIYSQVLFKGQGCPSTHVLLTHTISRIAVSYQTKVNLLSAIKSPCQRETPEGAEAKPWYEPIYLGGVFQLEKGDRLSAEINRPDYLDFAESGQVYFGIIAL
Structure (SMILES),IC50 [1] [nM],IC50 [nM]
CC[C@H](C)[C@@H]1NC(=O)[C@@H](CCCNC(=N)N)NC(=O)[C@H](CC(=O)O)NC(=O)[C@H](Cc2cnc[nH]2)NC(=O)CN(C)C(=O)[C@H](Cc2ccc(-c3ccc(NC(=O)c4cccc(CC(=O)O)c4)cc3)cc2)NC(=O)[C@H](Cc2ccc(-c3ccccc3)cc2)NC(=O)[C@H](CC2CCCCC2)NC(=O)CSC[C@@H](C(=O)NCC(N)=O)NC(=O)[C@H](CC(C)C)NC(=O)[C@H](Cc2cnc[nH]2)NC(=O)[C@H](C(C)C)NC(=O)[C@@H]2CCCN2C1=O [Example 444] ({CH2CO}-[Cha][Bip][Bip(4'-NHCO-C6H4-3-CH2COOH)][Sar]HD[dR]IPVHLCG-NH2; thioether N-13),< 50,–
CC[C@H](C)[C@@H]1NC(=O)[C@@H](CCCNC(=N)N)NC(=O)[C@H](CC(=O)O)NC(=O)[C@H](Cc2cnc[nH]2)NC(=O)CN(C)C(=O)[C@H](Cc2ccc(-c3ccc(NC(=O)c4ccc(CC(=O)O)cc4)cc3)cc2)NC(=O)[C@H](Cc2ccc(-c3ccccc3)cc2)NC(=O)[C@H](CC2CCCCC2)NC(=O)CSC[C@@H](C(=O)NCC(N)=O)NC(=O)[C@H](CC(C)C)NC(=O)[C@H](Cc2cnc[nH]2)NC(=O)[C@H](C(C)C)NC(=O)[C@@H]2CCCN2C1=O [Example 445] ({CH2CO}-[Cha][Bip][Bip(4'-NHCO-C6H4-4-CH2COOH)][Sar]HD[dR]IPVHLCG-NH2; thioether N-13),< 50,–
CC[C@H](C)[C@@H]1NC(=O)[C@@H](CCCNC(=N)N)NC(=O)[C@H](CC(=O)O)NC(=O)[C@H](Cc2cnc[nH]2)NC(=O)CN(C)C(=O)[C@H](Cc2ccc(-c3ccc(NC(=O)[C@H]4CCC[C@@H](C(=O)O)C4)cc3)cc2)NC(=O)[C@H](Cc2ccc(-c3ccccc3)cc2)NC(=O)[C@H](CC2CCCCC2)NC(=O)CSC[C@@H](C(=O)NCC(N)=O)NC(=O)[C@H](CC(C)C)NC(=O)[C@H](Cc2cnc[nH]2)NC(=O)[C@H](C(C)C)NC(=O)[C@@H]2CCCN2C1=O [Example 446] ({CH2CO}-[Cha][Bip][X43][Sar]HD[dR]IPVHLCG-NH2; thioether N-13),50 to 200,–
CC[C@H](C)[C@@H]1NC(=O)[C@@H](CCCNC(=N)N)NC(=O)[C@H](CC(=O)O)NC(=O)[C@H](Cc2cnc[nH]2)NC(=O)CN(C)C(=O)[C@H](Cc2ccc(-c3ccc(NC(=O)c4cccc(C(=O)O)c4C)cc3)cc2)NC(=O)[C@H](Cc2ccc(-c3ccccc3)cc2)NC(=O)[C@H](CC2CCCCC2)NC(=O)CSC[C@@H](C(=O)NCC(N)=O)NC(=O)[C@H](CC(C)C)NC(=O)[C@H](Cc2cnc[nH]2)NC(=O)[C@H](C(C)C)NC(=O)[C@@H]2CCCN2C1=O [Example 447] ({CH2CO}-[Cha][Bip][X52][Sar]HD[dR]IPVHLCG-NH2; thioether N-13),50 to 200,–
CC(C)C[C@@H]1NC(=O)[C@H](CCCNC(=N)N)NC(=O)[C@H](C(C)C)NC(=O)[C@@H]2CCCN2C(=O)[C@H](C(C)C)NC(=O)[C@@H](CCCNC(=N)NCc2cccc(CO)c2)NC(=O)[C@H](CC(=O)O)NC(=O)[C@@H]2CCCN2C(=O)CN(C)C(=O)[C@H](Cc2ccc(-c3ccc(NC(=O)c4nn(C)c5ccccc45)cc3)cc2)NC(=O)[C@H](Cc2ccc(-c3ccccc3)cc2)NC(=O)[C@H](CN2CCOCC2)NC(=O)CSC[C@@H](C(=O)NCC(N)=O)NC1=O [Example 448] ({CH2CO}-[Ala(morpholin-4-yl)][Bip][X5][Sar]PD[dArg(ω-Bn(3-CH2OH))]VPVRLCG-NH2; thioether N-13),< 50,–
CC(C)C[C@@H]1NC(=O)[C@H](CCCNC(=N)N)NC(=O)[C@H](C(C)C)NC(=O)[C@@H]2CCCN2C(=O)[C@H](C(C)C)NC(=O)[C@@H](CCCNC(=N)NCc2ccc3occc3c2)NC(=O)[C@H](CC(=O)O)NC(=O)[C@@H]2CCCN2C(=O)CN(C)C(=O)[C@H](Cc2ccc(-c3ccc(NC(=O)c4nn(CC(=O)O)c5ccccc45)cc3)cc2)NC(=O)[C@H](Cc2ccc(-c3ccccc3)cc2)NC(=O)[C@H](CN2CCOCC2)NC(=O)CSC[C@@H](C(=O)NCC(N)=O)NC1=O [Example 449] ({CH2CO}-[Ala(morpholin-4-yl)][Bip][Bip(4'-NH)](Indazole3carbonyl(1-CH2COOH))[Sar]PD[X7]VPVRLCG-NH2; thioether N-13),–,< 50
CC[C@H](C)[C@@H]1NC(=O)[C@@H](CCCNC(=N)N)NC(=O)[C@H](CC(=O)O)NC(=O)[C@H](Cc2cnc[nH]2)NC(=O)CN(C)C(=O)[C@H](Cc2ccc(-c3ccc(NC(=O)c4cc(C(=O)O)ccc4C)cc3)cc2)NC(=O)[C@H](Cc2ccc(-c3ccccc3)cc2)NC(=O)[C@H](CC2CCCCC2)NC(=O)CSC[C@@H](C(=O)NCC(N)=O)NC(=O)[C@H](CC(C)C)NC(=O)[C@H](Cc2cnc[nH]2)NC(=O)[C@H](C(C)C)NC(=O)[C@@H]2CCCN2C1=O [Example 450] ({CH2CO}-[Cha][Bip][X77][Sar]HD[dR]IPVHLCG-NH2; thioether N-13),< 50,–
CC(=O)Nc1ccc(-c2ccc(C[C@@H]3NC(=O)[C@H](Cc4ccc(-c5ccccc5)cc4)NC(=O)[C@H](CC4CCCCC4)NC(=O)CSC[C@@H](C(=O)NCC(N)=O)NC(=O)[C@H](CC(C)C)NC(=O)[C@H](Cc4ncc[nH]4)NC(=O)[C@H](C(C)C)NC(=O)[C@@H]4CCCN4C(=O)[C@H](C(C)C)NC(=O)[C@@H](CCCNC(=N)N)NC(=O)[C@H](CC(=O)O)NC(=O)[C@H](Cc4ccco4)NC(=O)CN(C)C3=O)cc2)cc1 [Example 451] ({CH2CO}-[Cha][Bip][Bip(4'-NHAc)][Sar][Ala(2-furyl)]D[dR]VPV[Ala(imidazol-2-yl)]LCG-NH2; thioether N-13),< 50,–
